Like-named read-outs stand apart in the source and are kept apart here.
What was measured:
[1] = parameters: method as in Dong et al., 1999; settings: following administration of grape juice, healthy Chinese subjects; ref Dong et al., 1999; cited from earlier work
[2] = Pharmacokinetics of oral omeprazole (40 mg) alone or with fresh grape juice in healthy male volunteers, plasma HPLC-UV, non-compartmental analysis; type: in vivo, human; settings: for AUC / Tmax / Cmax: male, human, plasma; for AUC / Cmax: 40 mg
Description: The open-label and randomized study design was used to conduct the study in normal, healthy male volunteers. All volunteers were directed not to take any type of medication, including herbal medicines, for 2 weeks prior to clinical trials. Volunteers were divided into two groups. In treatment period-I, after overnight fasting, volunteers in group A received omeprazole (40 mg) alone, and volunteers in group B, […], were administered omeprazole (40 mg) along with grape juice (≈ 250 mL) on the fourth day. […] The volunteers in group B were given omeprazole (40 mg) alone. […] Blood samples (≈ 3 mL) were collected from each volunteer before the administration of the drug, as a blank, and following the administration of the drug at 0 […], and 24 h, in EDTA blood collection tubes. […] It was then centrifuged at 5,000 rpm for 5 min at -3°C. The supernatant was removed and evaporated in a nitrogen flux and then reconstituted in the mobile phase up to 0.5 mL and stored in a refrigerator. The samples were analyzed using a validated HPLC/UV-Vis chromatographic method developed for plasma sample analysis. The plasma samples were thawed on ice at room temperature and processed for analysis using the developed method. A calibration curve was plotted for varying concentrations of omeprazole, keeping the concentration of pantoprazole constant, and used as an internal standard. […] The concentration of pantoprazole was kept at 1 μg/ml as an internal standard. The concentration of omeprazole was 1 μg/mL, 1.5 μg/mL, and 2 μg/mL, and the concentration of internal standard was 1 μg/mL. The pharmacokinetic parameters of plasma omeprazole were calculated for each individual, using non-compartmental analysis of plasma concentration-time data with the help of PK-Summit® software. Cmax, the maximum plasma concentration, and tmax, the time to reach the maximum plasma concentration, were directly calculated from the analyzed data. The terminal half-life was calculated using the equation 0.693/kel, where kel represents the value of the elimination rate constant. The area under the plasma concentration-time curve was calculated according to the trapezoidal rule over the time interval 0 to the last measurable concentration (AUC0-t) and subsequent extrapolation to time infinity (AUC0-∞). The first moment of the plasma concentration vs. time curve (AUMC) is the plasma concentration multiplied by time vs. the time curve calculated by the same trapezoidal rule. The total body clearance (CL/F) was calculated as dose/AUC0-∞. The volume of distribution was calculated by multiplying total body clearance with the mean residence time (MRT). Statistical analysis was performed by paired t-test, and the pharmacokinetic parameters of omeprazole with water were compared with the parameters obtained from omeprazole administered with grape juice.

[3] = previously reported range; cited from earlier work
[4] = Pharmacokinetics of oral omeprazole (40 mg) alone or with fresh grape juice in healthy male volunteers, plasma HPLC-UV, non-compartmental analysis; type: in vivo, human; settings: regular intake of 250 mL grape juice for 1 week before omeprazole
[5] = with repeated doses; cited from earlier work
[6] = test system: H+/K+ ATPase or proton pump in parietal cells; parameters: method as in Kromer et al., 1999; settings: ref Kromer et al., 1999; cited from earlier work

CCOc1ccc(NC(C)=O)cc1 [phenacetin]
change of AUC [1]: reduced AUC

COc1ccc2[nH]c([S+]([O-])Cc3ncc(C)c(OC)c3C)nc2c1 (centres unmarked) [Omeprazole]
AUC ([2]; oral, omeprazole 40 mg with water, read-out: AUC0 ∞): 6000 ± 1540 ng·h/mL
Tmax ([2]; oral, omeprazole 40 mg co-administered with fresh grape juice, read-out: mean time to reach the maximum plasma concentration (converted)): 2.09 h
Cmax ([2]; po, omeprazole 40 mg oral alone with water, mean): 1950 ng/mL
AUC ([2]; po, omeprazole 40 mg oral alone with water, mean, read-out: AUC0t): 5840 ng·h/mL
AUC ([2]; po, omeprazole 40 mg oral alone with water, mean, read-out: AUC0∞): 6000 ng·h/mL
AUC ([2]; po, omeprazole 40 mg oral alone with water, read-out: AUC0 t): 5840 ng·h/mL
AUC ([2]; po, omeprazole 40 mg oral alone, Table 4, read-out: AUC0∞): 6000 ng·h/mL
Cmax ([2]; po, omeprazole 40 mg oral with 250 mL fresh grape juice after prior juice intake, mean): 1020 ng/mL
AUC ([2]; po, omeprazole 40 mg oral with fresh grape juice, mean, read-out: AUC0 t): 2830 ng·h/mL
AUC ([2]; po, omeprazole 40 mg oral with fresh grape juice, mean, read-out: AUC0∞): 2910 ng·h/mL
Tmax ([2]; omeprazole 40 mg oral with fresh grape juice, mean, read-out: Tmax): 2.09 h
AUMC0∞ ([2]; omeprazole 40 mg oral alone with water, mean): 19.6 µg.hr*hr/mL
AUMC0∞ ([2]; omeprazole 40 mg oral alone, Table 4): 19.6 µg.hr*h/mL
AUMC0∞ ([2]; omeprazole 40 mg oral with fresh grape juice, mean): 10.36 µg.h*h/mL
AUMC0∞ ([2]; omeprazole 40 mg oral with grape juice, Table 4): 10.36 µg.hr*h/mL
effect of grape juice on mean value of clearance ([2]; omeprazole with grape juice versus alone): increased
Ratio (OMP + juice/OMP) of AUC0 t ([2]; with grape juice versus alone): 0.4846
Ratio (OMP + juice/OMP) of AUC0∞ ([2]; with grape juice versus alone): 0.485
Ratio (OMP + juice/OMP) of AUMC0∞ ([2]; with grape juice versus alone): 0.5286
Ratio (OMP + juice/OMP) of Cmax ([2]; with grape juice versus alone): 0.5212
Ratio (OMP + juice/OMP) of Tmax ([2]; with grape juice versus alone): 1.045
tmax, range already reported [3]: 2 to 3 h
effect of grape juice on half-life [4]: not affected
increase of bioavailability [5]: up to 60%
duration of inhibition of gastric acid secretion [6]: up to 36 h
